Measured values: patent publication US5885987A, “Phenylene derivatives” (Kowa Co., Ltd., priority 1996, dated 1999)
Where two headings read alike, the source gives them in different places.

Experiments:
[1] = biological target: T1, isolated guinea pig ileum (histamine) (Cavia porcellus, UniProt P31389); assay: Antihistaminic action (in vitro), inhibition of histamine-induced contraction of isolated ileum; assay type: cell-based; conditions: for pD'2 (antihistaminic action): isolated guinea pig ileum, histamine, 30 min; for inhibition at 10 µM: 10^-5 M, 30 minutes incubation, 37° C., read-out: Antihistaminic (%), contraction inhibition rate
T1 construct: An isolated guinea pig ileum was cut into about 2 cm lengths; from tissue; host or cells: isolated guinea pig ileum
T1 sequence (P31389 whole entry): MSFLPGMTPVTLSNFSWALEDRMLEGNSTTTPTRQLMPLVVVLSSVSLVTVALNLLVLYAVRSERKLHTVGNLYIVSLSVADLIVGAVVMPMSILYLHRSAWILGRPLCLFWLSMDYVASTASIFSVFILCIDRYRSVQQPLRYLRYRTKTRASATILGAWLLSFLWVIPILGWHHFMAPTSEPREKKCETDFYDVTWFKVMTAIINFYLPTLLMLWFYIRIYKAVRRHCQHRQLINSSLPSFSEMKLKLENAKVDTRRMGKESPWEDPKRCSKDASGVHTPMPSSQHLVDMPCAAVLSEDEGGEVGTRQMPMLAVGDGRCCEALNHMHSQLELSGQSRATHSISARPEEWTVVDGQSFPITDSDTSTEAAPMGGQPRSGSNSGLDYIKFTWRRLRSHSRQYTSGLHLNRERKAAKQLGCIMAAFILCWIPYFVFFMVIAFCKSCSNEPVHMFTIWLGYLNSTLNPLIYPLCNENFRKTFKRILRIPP
Procedure: (§1) Antihistaminic Action and Anti-LTD4 Action (In vitro Tests)
(§2) An isolated guinea pig ileum was cut into about 2 cm lengths. Each ileum piece was suspended in a 20-ml container filled with the Krebs buffer. An isotonic contractive response by histamine or leukotriene D4 was recorded on a recorder. The Krebs buffer was controlled at 37° C., through which a mixed gas (95%O2 -5%CO2) was bubbled. First, histamine or leukotriene D4 was added to an organ bath to measure its dose-response. After the ileum piece was washed several times with the buffer, a test compound (will be identified by its example number; this will apply likewise hereinafter) of a predetermined specific concentration was added. Subsequent to incubation for 30 minutes, the dose-response of histamine or leukotriene D4 was measured again. Incidentally, in Table 7, the values (%) indicate contraction inhibition rate at 10^-5 M, while the values in parentheses show pD'2 values in the case of antihistaminic action and IC50 values in the case of anti-LTD4 action.

H1 receptor = biological target: T2, H1 receptor (Cavia porcellus, UniProt P31389); assay: H1 receptor binding inhibition test ([^3 H]mepyramin, guinea pig cerebromembranous protein); conditions: for inhibition at 10 µM: b: 10 μM; for inhibition at 10 µM / inhibition at 100 µM: read-out: H1 receptor (%), inhibition rate; for Kd: read-out: H1 receptor, dissociation constant KD; for inhibition at 100 µM: a: 100 μM
T2 construct: guinea pig cerebromembranous protein; from tissue; host or cells: guinea pig cerebral (brain) membranes
T2 sequence (P31389 whole entry): as above
Procedure: 1) H1 Receptor Binding Inhibition Test
An ice-cooled phosphate buffer was added to terminate the reaction, followed by immediate filtration through a Wattman CF/C filter. The filter was washed twice with 20 ml aliquots of the ice-cooled buffer. The radioactivity of the residue was measured by a liquid scintillation counter. From a measurement value obtained without the addition of the test compound and measurements values obtained upon addition of the test compound at various concentrations, the dose-response of the inhibitory action of the test compound was measured and the 50% inhibitory concentration (IC50) was determined. Using the Cheng-Prusoff formula, a dissociation constant was calculated from the IC50. In a binding assay, 10^-4 M R(-)dimethindene was used for the measurement of a nonspecific binding.

LTD4 receptor = biological target: T3, LTD4 receptor (Cavia porcellus, UniProt Q2NNR5); assay: LTD4 receptor binding inhibition test ([^3 H]leukotriene D4, guinea pig pulmomembranous protein); conditions: for Kd: read-out: LTD4 receptor, dissociation constant KD; for inhibition at 100 µM: a: 100 μM
T3 construct: guinea pig pulmomembranous protein; from tissue; host or cells: guinea pig lung membranes
T3 sequence (Q2NNR5 1-340): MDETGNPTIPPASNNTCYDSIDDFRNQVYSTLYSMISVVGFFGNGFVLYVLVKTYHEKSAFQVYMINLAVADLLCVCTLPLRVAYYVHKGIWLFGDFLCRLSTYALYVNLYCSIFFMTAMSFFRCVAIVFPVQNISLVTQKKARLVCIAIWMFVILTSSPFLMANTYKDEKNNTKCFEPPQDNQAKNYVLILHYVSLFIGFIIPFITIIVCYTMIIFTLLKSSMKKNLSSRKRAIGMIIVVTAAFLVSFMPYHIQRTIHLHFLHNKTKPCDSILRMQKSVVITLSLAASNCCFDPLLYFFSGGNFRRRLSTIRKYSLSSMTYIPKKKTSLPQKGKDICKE
Procedure: 2) LTD4 Receptor Binding Inhibition Test
An ice-cooled tris hydrochloride/sodium chloride buffer (10 mM/100 mM, pH 7.5) was added to terminate the reaction, followed by immediate filtration through a Wattman CF/C filter. The filter was washed twice with 20 ml aliguots of the ice-cooled buffer. The radioactivity of the residue was measured by a liquid scintillation counter. […] In a binding assay, 2 μM leukotriene D4 was used for the measurement of a nonspecific binding.

[2] = system: isolated guinea pig ileum (leukotriene D4); assay: Anti-LTD4 action (in vitro), inhibition of leukotriene D4-induced contraction of isolated ileum; assay type: cell-based; conditions: Cavia porcellus; for IC50: isolated guinea pig ileum, leukotriene D4
Procedure: as §1, §2

[3] = read-out: LTD4 receptor (%), inhibition rate
[4] = 0.5 nM [^3 H]mepyramin, pH 7.5, 37° C., 30 minutes, calculated from IC50 with Cheng-Prusoff formula

Kd (LTD4 receptor) | inhibition at 100 µM (H1 receptor) | Compound | further results
0.0413 µM |  | O=C1CCCc2cc(OCc3cccc(OCc4ccc5ccccc5n4)c3)ccc21 [Example 89, 6-[3-(2-quinolinylmethoxy)benzyloxy]-1-tetralone] | pD'2 (antihistaminic action) [1]: 5.09; inhibition at 10 µM (H1 receptor): 6%; IC50 [2]: 0.24 µM
0.06 µM |  | O=C1CCCc2cc(OCc3cccc(OCc4ncc5ccccc5n4)c3)ccc2N1 [Example 82, 7-[3-(2-quinazolinylmethoxy)benzyloxy]-2,3,4,5-tetrahydro-1H-benz[b]azepin-2-one] | inhibition at 10 µM (H1 receptor): 5%
0.0129 µM |  | O=C1CCCc2cc(OCc3cccc(OCc4ncc5ccccc5n4)c3)ccc21 [Example 90, 6-[3-(2-quinazolinylmethoxy)benzyloxy]-1-tetralone] | inhibition at 10 µM (H1 receptor): 8%
0.331 µM | 33% | CC1(C)C(=O)Nc2c(OC(=O)c3ccc(OCc4ccc5ccccc5n4)cc3)cccc21 [Example 69, 3,3-Dimethyl-7-(4-(2-quinolinylmethoxy)benzoyloxyy]-2,3-dihydro-1H-indol-2-one] | 
 | 40% | O=C1CCc2cc(OC(=O)c3ccc(OCc4ccc5ccccc5n4)cc3)ccc2N1 [Example 64, 6-[4-(2-Quinolinylmethoxy)benzoyloxy]-1,2,3,4-tetrahydroquinolin-2-one] | inhibition at 100 µM (LTD4 receptor; [3]): 12%
 | 49% | CC1(C)C(=O)Nc2ccc(OC(=O)c3ccc(OCc4ccc5ccccc5n4)cc3)cc21 [Example 67, 3,3-Dimethyl-5-[4-(2-quinolinylmethoxy)benzoyloxy]-2,3-dihydro-1H-indol-2-one] | inhibition at 100 µM (LTD4 receptor; [3]): 52%
 | 36% | O=C1CS(=O)(=O)c2cc(NC(=O)c3cccc(OCc4ccc5ccccc5n4)c3)ccc2N1 [Example 80] | inhibition at 10 µM (LTD4 receptor; b: 10 μM, read-out: LTD4 receptor (%), inhibition rate): 27%
0.608 µM |  | O=C1CSc2c(NCc3cccc(OCc4ccc5ccccc5n4)c3)cccc2N1 [Example 95, 8-[3-(2-quinolinylmethoxy)benzylamino]-3,4-dihydro-2H-1,4-benzothiazin-3-one] | inhibition at 10 µM (H1 receptor): 33%
0.31 µM |  | Cn1c(COc2cccc(COc3ccc4c(c3)CCCC(=O)N4)c2)nc2ccccc21 [Example 83] | inhibition at 10 µM (H1 receptor): 0%
0.208 µM | 37% | O=C1CSc2c(cccc2NC(=O)c2cccc(OCc3ccc4ccccc4n3)c2)N1 [Example 70, 8-(3-(2-Quinolinylmethoxy)benzoylamino]-3,4-dihydro-2H-1,4-benzothiazin-3-one] | 

Continued, compound first:

Compound | Kd (LTD4 receptor) | inhibition at 100 µM (H1 receptor) | further results
Cc1ccc(OCc2ccc(OCc3nc4ccccc4n3C)cc2)c2c1NC(=O)C2(C)C [Example 39, 4-[4-(N-methylbenzimidazol-2-yl-methoxy)benzyloxy)-3,3,7-trimethyl-2,3-hydro-1H-indol-2-one] |  |  | inhibition at 10 µM [1]: 100%; pD'2 (antihistaminic action) [1]: 6.42; Kd (H1 receptor): 37.4 µM; Ki (LTD4 receptor; read-out: LTD4 receptor, dissociation constant KD (converted)): 0.408 µM; inhibition at 10 µM ([2]; 0.5 h, 10^-5 M, 30 minutes incubation, 37° C., read-out: Anti-LTD4 action (%), contraction inhibition rate): 98%; IC50 [2]: 0.44 µM
Cc1ccc(OC(=O)c2ccc(OCc3ccc4ccccc4n3)cc2)c2c1NC(=O)CC2 [Example 63, 8-Methyl-5-(4-(2-quinolinylmethoxy)benzoyloxy]-1,2,3,4-tetrahydroquinolin-2-one] | 0.0306 µM | 40% | 
Cc1ccc(OCc2cccc(OCc3ccc4ccccc4n3)c2)c2cc(C#N)c(=O)[nH]c12 [Example 3, 3-Cyano-8-methyl-5-[3-(2-quinolinylmethoxy)benzyloxy]-1,2-dihydroquinolin-2-one] | 0.523 µM | 44% | 
CC1(C)C(=O)Nc2ccc(OCc3cccc(OCc4ccc5ccccc5n4)c3)cc21 [Example 14, 3,3'-Dimethyl-5-[3-(2-quinolinylmethoxy)benzyloxy]-2,3-dihydro-1H-indol-2-one] | 0.215 µM | 29% | 
O=C1CCc2ccc(OC(=O)c3cccc(OCc4ccc5ccccc5n4)c3)cc2N1 [Example 56, 7-[3-(2-Quinolinylmethoxy)benzoyloxy]-1,2,3,4-tetrahydroquinolin-2-one] |  |  | Kd (H1 receptor): 93 µM; inhibition at 100 µM (LTD4 receptor; [3]): 12%
Cc1ccc(OCc2cccc(OCc3nc4ccccc4n3C)c2)c2c1NC(=O)C2(C)C [Example 37, 4-[3-(N-methylbenzimidazol-2-yl-methoxy)benzyloxy)-3,3,7-trimethyl-2,3-hydro-1H-indol-2-one] | 0.204 µM | 28% | 
Cc1ccc(OC(=O)c2cccc(OCc3ccc4ccccc4n3)c2)c2c1NC(=O)CC2 [Example 54, 8-Methyl-5-[3-(2-quinolinylmethoxy)benzoyloxy]-1,2,3,4-tetrahydroquinolin-2-one] | 0.129 µM | 41% | 
Cc1ccc(OCc2ccc(OCc3ccc4ccccc4n3)cc2)c2c1NC(=O)C2(C)C [Example 27, 4-[4-(2-Quniolinylmethoxy)benzyloxy]-3,3,7-trimethyl-2,3-dihydydro-1H-indol-2-one] | 0.139 µM | 38% | 
O=C1CCc2cccc(OCc3ccc(OCc4ccc5ccccc5n4)cc3)c2N1 [Example 24, 8-[4-(2-Quinolinylmethoxy)benzyloxy]-1,2,3,4-tetrahydroquinolin-2-one] | 0.301 µM |  | Kd (H1 receptor): 25.8 µM
CC1(C)C(=O)Nc2ccc(OCc3ccc(OCc4ccc5ccccc5n4)cc3)cc21 [Example 18, 3,3-dimethyl-5-[4-(2-quinolinylmethoxy)benzyloxy]-2,3-dihydro-1H-indol-2-one] | 1.1 µM |  | Kd (H1 receptor): 78.7 µM
CCOCCn1c(COc2ccc(COc3ccc4c(c3)SCC(=O)N4)cc2)nc2ccccc21 [Example 46, 7-[(N-ethoxyethylbenzimidazol-2-yl-methoxy)benzyloxy]-3,4-dihydro-2H-1,4-benzothiazin-3-one] |  |  | Kd (H1 receptor; [4]): 5.95 µM; Kd (LTD4 receptor; 0.2 nM [^3 H]leukotriene D4, pH 7.5, 22° C., 30 minutes, calculated from IC50): 6.4 µM
CN(Cc1cccc(OCc2ccc3ccccc3n2)c1)c1ccc2c(c1)SCC(=O)N2C [96(b), 4-methyl-7-[N-methyl-N-(3-(2-quinolinylmethoxy)benzyl)amino]-3,4-dihydro-2H-1,4-benzothiazin-3-one] | 0.315 µM |  | inhibition at 10 µM [1]: 98%; pD'2 (antihistaminic action) [1]: 6.17; inhibition at 10 µM (H1 receptor): 14%; IC50 [2]: 0.12 µM
7-[4-(2-quinolinylmethoxy)benzyloxy]-2,3,4,5-tetrahydro-tetrazolo-[5,1-a][2]benzazepin [Example 88] |  |  | Kd (H1 receptor; [4]): 31.1 µM; LTD4 receptor (%), inhibition rate (LTD4 receptor; b: 10 μM): 30%
CCCCCCc1cc(OCc2cccc(OCc3ccc4ccccc4n3)c2)cc2c1C(C)(C)C(=O)N2 [Example 16, 3,3-Dimethyl-4-(n-hexyl)-6-[3-(2-quinolinylmethoxy)benzyloxy]-2,3-dihydro-1H-indol-2-one] | 2.5 µM | 48% | 
